From paper PMC11350787, “Antimicrobial Properties and Cytotoxicity of LL-37-Derived Synthetic Peptides to Treat Orthopedic Infections” (Antibiotics, 2024)
Structures can show the parent of a compound that is named as a salt. Peptide text beside a SMILES is read from it.

Experiments:
E. coli ATCC 25922 = experiment: microbe, parasite or virus in culture
Source text: (§1) A total of 18 bacterial strains relevant to orthopedic infections were used for microbiological tests, including 8 ATCC (American Type Culture Collection, ATCC, Manassas, VA, USA) and 10 clinical isolates (CI) from the Laboratory of Clinical Chemistry and Microbiology, IRCCS Ospedale Galeazzi–Sant’Ambrogio of Milan (Italy) strain collection. The ATCC strains were used for the first screening (MIC/MBC) of all the AMPs produced, while the clinical isolates were used for further MIC/MBC assays on selected AMPs. Among CI, S. epidermidis GOI1153754-03-14 has been already characterized and used in previous studies. All the strains were stocked at −80°C and working stocks were stored at −20 °C. At the occurrence, the bacteria were resuscitated in Brain Hearth Infusion (BHI, Millipore, Milan, Italy) broth at 37 °C for 18 h from the working stocks.
(§2) To determine the minimum inhibitory concentration (MIC) and the minimum bactericidal concentration (MBC), ISO20776-1 and Clinical and Laboratory Standards Institute guidelines were followed. A commercial synthetic LL-37 (Aurogene, Rome, Italy) was used as the control in the MIC and MBC assays. A stock solution of each AMP was prepared at 600 µg/mL to achieve a final concentration of 300 µg/mL. […] The MIC was determined according to the aforementioned standard guidelines. The MBC was determined by plating 2 µL of culture from each well of the MIC plates on a Tryptic Soy Agar (TSA, Millipore, Milan, Italy) plate and incubated for 24 h at 37 °C. The concentration at which there was no growth was recorded as MBC. Each experiment was carried out in triplicate. Representative MIC and MBC values for vancomycin and gentamicin were assessed to offer a benchmark comparison for the AMPs. Quality control was conducted with Staphylococcus aureus ATCC 29,213 and vancomycin according to EUCAST guidelines.

P. aeruginosa ATCC 27853 = experiment: microbe, parasite or virus in culture
Source text: as §1, §2

S. aureus ATCC 25923 = experiment: microbe, parasite or virus in culture
Source text: as §1, §2

S. aureus ATCC 43300 = experiment: microbe, parasite or virus in culture
Source text: as §1, §2

S. aureus ATCC 49230 = experiment: microbe, parasite or virus in culture
Source text: as §1, §2

[1] = system: S. epidermidis ATCC 14990; experiment: microbe, parasite or virus in culture
Source text: as §1, §2

[2] = system: S. epidermidis ATCC 35984; experiment: microbe, parasite or virus in culture
Source text: as §1, §2

ATCC strains = system: ATCC strains
Source text: as §1, §2

Question: What does the source list for CC[C@H](C)[C@H](NC(=O)[C@H](CCCNC(=N)N)NC(=O)[C@H](CCC(N)=O)NC(=O)[C@@H](NC(=O)[C@@H](NC(=O)[C@H](CCCNC(=N)N)NC(=O)[C@H](CCCCN)NC(=O)[C@@H](N)Cc1ccccc1)[C@@H](C)CC)C(C)C)C(=O)N[C@@H](CCCCN)C(=O)N[C@@H](CC(=O)O)C(=O)N[C@@H](Cc1ccccc1)C(=O)N[C@@H](CC(C)C)C(=O)N[C@@H](CCCNC(=N)N)C(N)=O [FK-13] (H-FKRIVQRIKDFLR-NH2)?
Answer: Minimum Inhibitory Concentration (MIC) (E. coli ATCC 25922; ATCC 25922, 18 h): 75.00 µg/mL; Minimum Bactericidal Concentration (MBC) (E. coli ATCC 25922; ATCC 25922, 24 h): 150.00 µg/mL; Minimum Inhibitory Concentration (MIC) (P. aeruginosa ATCC 27853; ATCC 27853, 18 h): 300.00 µg/mL; Minimum Bactericidal Concentration (MBC) (P. aeruginosa ATCC 27853; ATCC 27853, 24 h): 300.00 µg/mL; Minimum Inhibitory Concentration (MIC) (S. aureus ATCC 25923; ATCC 25923, 18 h): 300.00 µg/mL; Minimum Bactericidal Concentration (MBC) (S. aureus ATCC 25923; ATCC 25923, 24 h): >300.00 µg/mL; Minimum Inhibitory Concentration (MIC) (S. aureus ATCC 43300; ATCC 43300, 18 h): 300.00 µg/mL; Minimum Bactericidal Concentration (MBC) (S. aureus ATCC 43300; ATCC 43300, 24 h): >300.00 µg/mL; Minimum Inhibitory Concentration (MIC) (S. aureus ATCC 49230; ATCC 49230, 18 h): >300.00 µg/mL; Minimum Bactericidal Concentration (MBC) (S. aureus ATCC 49230; ATCC 49230, 24 h): >300.00 µg/mL; Minimum Inhibitory Concentration (MIC) ([1]; ATCC 14990, 18 h): 150.00 µg/mL; Minimum Bactericidal Concentration (MBC) ([1]; ATCC 14990, 24 h): 150.00 µg/mL; Minimum Inhibitory Concentration (MIC) ([2]; ATCC 35984, 18 h): 150.00 µg/mL; Minimum Bactericidal Concentration (MBC) ([2]; ATCC 35984, 24 h): 150.00 µg/mL; MBC values over all ATCC strains tested (ATCC strains; 18 h): greater than 300 µg/mL

Question: For O=C(O)C(F)(F)F [Na-TFA, Trifluoroacetic acid, reference compound], which MBC (E. coli ATCC 25922; Escherichia coli, ATCC25922, 24 h, read-out: Minimum Bactericidal Concentration (MBC)) is on record?
Answer: The MBC was greater than 200 µg/mL.

Question: What about the MIC (E. coli ATCC 25922; Escherichia coli, ATCC25922, read-out: Minimum Inhibitory Concentration (MIC)) of the same compound?
Answer: The MIC was greater than 200 µg/mL.

Question: What about the MBC (P. aeruginosa ATCC 27853; Pseudomonas aeruginosa, ATCC27853, 24 h, read-out: Minimum Bactericidal Concentration (MBC)) of the same compound?
Answer: Its MBC is greater than 200 µg/mL.

Question: What about the MIC (P. aeruginosa ATCC 27853; Pseudomonas aeruginosa, ATCC27853, read-out: Minimum Inhibitory Concentration (MIC)) of the same compound?
Answer: The MIC was greater than 200 µg/mL.

Question: What about the MBC (S. aureus ATCC 25923; Staphylococcus aureus, ATCC25923, 24 h, read-out: Minimum Bactericidal Concentration (MBC)) of the same compound?
Answer: Its MBC is greater than 200 µg/mL.

Question: What about the MIC (S. aureus ATCC 25923; Staphylococcus aureus, ATCC25923, read-out: Minimum Inhibitory Concentration (MIC)) of the same compound?
Answer: The MIC was greater than 200 µg/mL.

Question: And the MBC (S. aureus ATCC 43300; Staphylococcus aureus, ATCC43300, 24 h, read-out: Minimum Bactericidal Concentration (MBC))?
Answer: The MBC was greater than 200 µg/mL.

Question: What about the MIC (S. aureus ATCC 43300; Staphylococcus aureus, ATCC43300, read-out: Minimum Inhibitory Concentration (MIC)) of the same compound?
Answer: The MIC was greater than 200 µg/mL.

Question: And the MBC (S. aureus ATCC 49230; Staphylococcus aureus, ATCC49230, 24 h, read-out: Minimum Bactericidal Concentration (MBC))?
Answer: The MBC was greater than 200 µg/mL.

Question: What about the MIC (S. aureus ATCC 49230; Staphylococcus aureus, ATCC49230, read-out: Minimum Inhibitory Concentration (MIC)) of the same compound?
Answer: Its MIC is greater than 200 µg/mL.

Question: What about the MBC ([1]; Staphylococcus epidermidis, ATCC14990, 24 h, read-out: Minimum Bactericidal Concentration (MBC)) of the same compound?
Answer: Its MBC is greater than 200 µg/mL.

Question: What about the MIC ([1]; Staphylococcus epidermidis, ATCC14990, read-out: Minimum Inhibitory Concentration (MIC)) of the same compound?
Answer: The MIC was greater than 200 µg/mL.

Question: What about the MBC ([2]; Staphylococcus epidermidis, ATCC35984, 24 h, read-out: Minimum Bactericidal Concentration (MBC)) of the same compound?
Answer: The MBC was greater than 200 µg/mL.

Question: What about the MIC ([2]; Staphylococcus epidermidis, ATCC35984, read-out: Minimum Inhibitory Concentration (MIC)) of the same compound?
Answer: Its MIC is greater than 200 µg/mL.

Question: And the “Bacteriostatic or bactericidal effect” value (ATCC strains; all ATCC strains, at the concentrations tested (up to 200 µg/mL))?
Answer: The value was “no bacteriostatic or bactericidal effect”.
